Reference: patent US7101681B1, “Nuclear hormone receptor drug screens” (Amgen, Inc., priority 1997, dated 2006)

Experiments:
[1] = biological target: T1, PPARγ (Homo sapiens, UniProt P37231); test: Fluorescent polarization assay, labeled peptide sensor binding to PPARγ; conditions: graded symbols O, I to IV, key not given
T1 sequence (P37231 238-503 limits assumed): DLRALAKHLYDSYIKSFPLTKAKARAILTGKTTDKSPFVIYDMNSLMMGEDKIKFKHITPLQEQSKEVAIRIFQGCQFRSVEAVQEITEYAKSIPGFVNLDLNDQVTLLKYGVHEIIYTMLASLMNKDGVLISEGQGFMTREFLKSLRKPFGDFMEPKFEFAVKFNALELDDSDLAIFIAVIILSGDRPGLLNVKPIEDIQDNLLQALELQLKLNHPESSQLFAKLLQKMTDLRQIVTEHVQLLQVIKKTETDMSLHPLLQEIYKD
Experimental: (§1) I. High-Throughput In Vitro Fluorescence Polarization Assay
(§2) • Sensor: Rhodamine-labeled L1X1X2L2L3 peptide (final conc.=1–5 nM) • Receptor: Glutathione-S-transferase/nuclear hormone receptor ligand binding domain fusion protein (final conc.=100–200 nM) • Buffer: 10 mM HEPES, 10 mM NaCl, 6 mM magnesium chloride, pH 7.6 Protocol: • 1. Add 90 microliters of peptide/NHR mixture to each well of a 96-well microtiter plate. • 2. Add 10 microliters of test compound per well. • 3. Shake 5 min and within 5 minutes determine amount of fluorescence polarization by using a Fluorolite FPM-2 Fluorescence Polarization Microtiter System (Dynatech Laboratories, Inc). II. Conformational Sensor—ELISA Format Assay Buffer and Solution Preparation: […]

[2] = tested on: RXR; test: Fluorescent polarization assay, labeled peptide sensor binding to RXR; conditions: for Sensors Activity: Fluorescent Polarization Assay RXR: graded symbols O, I to IV, key not given
Experimental: as §1, §2

[3] = tested on: LXR; test: Fluorescent polarization assay, labeled peptide sensor binding to LXR; conditions: for Sensors Activity: Fluorescent Polarization Assay LXR: graded symbols O, I to IV, key not given
Experimental: as §1, §2

| Molecule | Sensors Activity: Fluorescent Polarization Assay RXR [2] | Sensors Activity: Fluorescent Polarization Assay LXR [3] | further results |
| --- | --- | --- | --- |
| TUK-1391: labeled peptide sensor R-LLRYLLDK, SRC-1 748–755 |  |  | Sensors Activity: Fluorescent Polarization Assay PPARγ [1]: II+ |
| TUK-1381: labeled peptide sensor R-LLQQLLTE, SRC-1 1434–1441 | I+ |  | Sensors Activity: Fluorescent Polarization Assay PPARγ [1]: I+ |
| TUK-1382: labeled peptide sensor F-G-LLQQLLTE, SRC-1 1434–1441 |  | II+ |  |
| TUK-1380: labeled peptide sensor F-LLQQLLTE (SEQ ID NO:12), SRC-1 1434–1441 (fluorescent label) |  | II+ |  |
| TUK-1455: labeled peptide sensor R-LRYLLD (SEQ ID NO:5), SRC-1 749–754 (R label) |  |  | Sensors Activity: Fluorescent Polarization Assay PPARγ [1]: I+ |
| 9-cis-retinoic acid [reference compound] |  |  | RXR receptor affinity for labeled peptide sensor ([2]; ligand at 1 μM, dose response, FIG. 3): increases |
| TUK-1373: labeled peptide sensor R-G-ILHRLLQE, SRC-1 689–696 | II+ |  |  |
| TUK-1473: labeled peptide sensor R-QLLRYLLDKD (SEQ ID NO:9), SRC-1 747–756 (label R) | I+ |  | Sensors Activity: Fluorescent Polarization Assay PPARγ [1]: I+ |
| TUK-1393: labeled peptide sensor R-G-LLRYLLDK, SRC-1 748–755 | II+ | III+ |  |
| TUK-1453: labeled peptide sensor R-LLRYLLD (SEQ ID NO:4), SRC-1 748–754 (R label) | I+ |  |  |
| TUK-1371: labeled peptide sensor R-ILHRLLQE, SRC-1 689–696 |  |  | Sensors Activity: Fluorescent Polarization Assay PPARγ [1]: I+ |
| TUK-1557: labeled peptide sensor R-ILKKLLQE (SEQ ID NO:17), synthetic sequence peptide (label R) |  | III+ |  |
| CC(C)C(=O)CC[C@@H](C)[C@H]1CC[C@H]2[C@@H]3CC=C4C[C@@H](O)CC[C@]4(C)[C@H]3CC[C@]12C [24-ketocholesterol, reference compound] |  |  | LXR receptor affinity for labeled peptide sensor ([3]; ligand at 2 μM, dose response, FIG. 2): increases |
| TUK-1385: labeled peptide sensor R-KLVQLLTTT, SRC-1 632–640 | II+ | II+ |  |
| TUK-1390: labeled peptide sensor F-LLRYLLDK (SEQ ID NO:3), SRC-1 748–755 (fluorescent label) | II+ |  |  |
| TUK-1376: labeled peptide sensor F-G-VTLLQLLLG, RIP-140 496–506 |  | II+ |  |
| TUK-1392: labeled peptide sensor F-G-LLRYLLDK, SRC-1 748–755 |  | II+ |  |
